Tests used:
[1] = biological target: Protein arginine N-methyltransferase 3 (Homo sapiens, UniProt O60678); test: Selectivity interaction (Scintillation proximity assays) EUB0000255b PRMT3
[2] = biological target: T1, Serine/threonine-protein kinase DCLK2 (Homo sapiens) (UniProt Q8N568); test: Selectivity interaction (KinomeScan (DiscoverX)) EUB0000655a DCLK2; settings: at 10 µM
T1 sequence (whole entry): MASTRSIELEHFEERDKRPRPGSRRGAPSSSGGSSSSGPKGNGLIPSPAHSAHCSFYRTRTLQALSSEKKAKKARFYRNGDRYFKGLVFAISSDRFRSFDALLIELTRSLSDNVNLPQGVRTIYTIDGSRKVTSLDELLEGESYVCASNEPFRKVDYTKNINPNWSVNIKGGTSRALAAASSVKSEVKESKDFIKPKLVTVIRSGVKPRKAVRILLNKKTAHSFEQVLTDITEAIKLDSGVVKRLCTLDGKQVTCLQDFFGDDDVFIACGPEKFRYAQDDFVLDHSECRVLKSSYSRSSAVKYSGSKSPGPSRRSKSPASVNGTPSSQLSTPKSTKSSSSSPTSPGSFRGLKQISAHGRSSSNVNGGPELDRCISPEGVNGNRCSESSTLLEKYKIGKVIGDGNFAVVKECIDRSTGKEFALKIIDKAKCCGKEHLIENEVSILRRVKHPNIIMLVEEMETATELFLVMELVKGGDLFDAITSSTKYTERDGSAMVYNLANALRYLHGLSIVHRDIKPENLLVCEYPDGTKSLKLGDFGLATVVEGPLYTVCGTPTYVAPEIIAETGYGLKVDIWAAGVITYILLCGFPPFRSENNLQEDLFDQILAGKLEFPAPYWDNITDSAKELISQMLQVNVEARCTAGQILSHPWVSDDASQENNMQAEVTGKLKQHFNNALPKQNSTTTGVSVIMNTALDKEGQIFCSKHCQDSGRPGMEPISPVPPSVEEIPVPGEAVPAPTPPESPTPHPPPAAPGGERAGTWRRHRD

[3] = biological target: Serine/threonine-protein kinase MRCK gamma (Homo sapiens) (UniProt Q6DT37); test: Selectivity interaction (KinomeScan (DiscoverX)) EUB0000666a CDC42BPG; settings: at 10 µM
Sequence of Serine/threonine-protein kinase MRCK gamma (Homo sapiens) (Q6DT37 whole entry): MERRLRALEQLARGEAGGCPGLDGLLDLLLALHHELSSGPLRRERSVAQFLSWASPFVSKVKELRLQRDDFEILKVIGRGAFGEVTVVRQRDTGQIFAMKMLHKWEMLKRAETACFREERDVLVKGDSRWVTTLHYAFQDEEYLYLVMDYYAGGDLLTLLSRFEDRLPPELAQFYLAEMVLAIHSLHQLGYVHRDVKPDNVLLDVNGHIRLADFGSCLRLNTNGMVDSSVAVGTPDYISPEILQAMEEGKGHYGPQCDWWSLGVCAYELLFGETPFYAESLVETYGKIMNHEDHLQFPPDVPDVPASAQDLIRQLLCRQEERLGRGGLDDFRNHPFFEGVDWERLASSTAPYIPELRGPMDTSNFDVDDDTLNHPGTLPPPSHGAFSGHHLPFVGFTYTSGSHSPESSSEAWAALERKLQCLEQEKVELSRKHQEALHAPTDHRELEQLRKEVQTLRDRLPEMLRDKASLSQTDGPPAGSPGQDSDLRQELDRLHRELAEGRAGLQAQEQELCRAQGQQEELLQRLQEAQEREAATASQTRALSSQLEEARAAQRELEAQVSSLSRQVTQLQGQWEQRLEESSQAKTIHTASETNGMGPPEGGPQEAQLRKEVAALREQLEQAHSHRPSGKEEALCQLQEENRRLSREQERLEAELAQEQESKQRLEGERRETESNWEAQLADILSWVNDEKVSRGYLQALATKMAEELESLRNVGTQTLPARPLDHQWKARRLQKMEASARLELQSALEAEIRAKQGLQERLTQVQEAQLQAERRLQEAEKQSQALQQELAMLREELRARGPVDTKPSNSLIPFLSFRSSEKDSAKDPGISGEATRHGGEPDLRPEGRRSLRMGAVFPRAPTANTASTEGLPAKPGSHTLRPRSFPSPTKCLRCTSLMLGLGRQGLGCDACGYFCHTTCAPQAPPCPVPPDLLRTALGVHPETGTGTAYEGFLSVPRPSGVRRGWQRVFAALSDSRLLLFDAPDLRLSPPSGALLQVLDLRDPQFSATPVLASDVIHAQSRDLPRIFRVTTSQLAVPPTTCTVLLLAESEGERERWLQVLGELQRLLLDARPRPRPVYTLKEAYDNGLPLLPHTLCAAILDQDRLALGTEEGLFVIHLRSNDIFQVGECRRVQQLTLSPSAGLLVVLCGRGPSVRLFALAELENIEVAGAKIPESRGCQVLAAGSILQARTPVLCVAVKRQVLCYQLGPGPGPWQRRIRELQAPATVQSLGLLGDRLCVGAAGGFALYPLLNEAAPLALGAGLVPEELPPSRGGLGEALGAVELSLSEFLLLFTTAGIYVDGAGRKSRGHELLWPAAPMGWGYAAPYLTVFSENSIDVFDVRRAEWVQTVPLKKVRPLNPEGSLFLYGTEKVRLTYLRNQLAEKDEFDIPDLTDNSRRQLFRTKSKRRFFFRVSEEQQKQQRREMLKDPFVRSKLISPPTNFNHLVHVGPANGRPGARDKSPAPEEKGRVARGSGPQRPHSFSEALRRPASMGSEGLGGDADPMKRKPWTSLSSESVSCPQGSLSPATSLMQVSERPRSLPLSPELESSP

[4] = biological target: T2, Serine/threonine-protein kinase 17B (Homo sapiens) (UniProt O94768); settings: at 10 µM
T2 sequence (whole entry): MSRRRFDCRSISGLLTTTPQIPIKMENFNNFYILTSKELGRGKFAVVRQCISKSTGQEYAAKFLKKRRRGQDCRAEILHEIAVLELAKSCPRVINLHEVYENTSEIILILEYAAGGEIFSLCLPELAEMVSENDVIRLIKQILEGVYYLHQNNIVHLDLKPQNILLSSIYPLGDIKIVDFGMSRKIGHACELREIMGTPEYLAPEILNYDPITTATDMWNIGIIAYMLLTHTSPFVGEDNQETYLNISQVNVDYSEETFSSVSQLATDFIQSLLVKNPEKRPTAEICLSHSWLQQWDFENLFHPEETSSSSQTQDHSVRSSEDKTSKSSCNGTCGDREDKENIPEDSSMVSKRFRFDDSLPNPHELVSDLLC

[5] = biological target: Mitogen-activated protein kinase 10 (Homo sapiens, UniProt P53779); test: Selectivity interaction (LanthaScreen Eu Kinase Binding Assay) EUB0001632a MAPK10; settings: at 10 µM
Sequence of Mitogen-activated protein kinase 10 (P53779 whole entry): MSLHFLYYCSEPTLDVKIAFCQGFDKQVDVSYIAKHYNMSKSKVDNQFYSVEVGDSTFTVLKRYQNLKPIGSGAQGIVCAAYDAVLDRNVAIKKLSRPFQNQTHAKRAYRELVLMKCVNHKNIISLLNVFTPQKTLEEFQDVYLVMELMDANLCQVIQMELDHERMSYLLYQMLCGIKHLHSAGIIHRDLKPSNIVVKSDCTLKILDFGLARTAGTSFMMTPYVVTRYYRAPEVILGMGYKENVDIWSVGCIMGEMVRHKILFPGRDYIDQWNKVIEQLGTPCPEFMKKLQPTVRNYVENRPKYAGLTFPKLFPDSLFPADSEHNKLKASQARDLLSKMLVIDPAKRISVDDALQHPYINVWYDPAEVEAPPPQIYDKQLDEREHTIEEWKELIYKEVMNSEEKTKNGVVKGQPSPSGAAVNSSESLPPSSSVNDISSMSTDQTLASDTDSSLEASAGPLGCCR

[6] = biological target: Ribosomal protein S6 kinase alpha-1 (Homo sapiens, UniProt Q15418); test: Selectivity interaction (ActivX KiNativ screen (kinase selectivity in THP-1 cell lysates)) EUB0000639a RPS6KA1; format: subcellular; settings: lysate, at 5 µM
Sequence of Ribosomal protein S6 kinase alpha-1 (Q15418 whole entry): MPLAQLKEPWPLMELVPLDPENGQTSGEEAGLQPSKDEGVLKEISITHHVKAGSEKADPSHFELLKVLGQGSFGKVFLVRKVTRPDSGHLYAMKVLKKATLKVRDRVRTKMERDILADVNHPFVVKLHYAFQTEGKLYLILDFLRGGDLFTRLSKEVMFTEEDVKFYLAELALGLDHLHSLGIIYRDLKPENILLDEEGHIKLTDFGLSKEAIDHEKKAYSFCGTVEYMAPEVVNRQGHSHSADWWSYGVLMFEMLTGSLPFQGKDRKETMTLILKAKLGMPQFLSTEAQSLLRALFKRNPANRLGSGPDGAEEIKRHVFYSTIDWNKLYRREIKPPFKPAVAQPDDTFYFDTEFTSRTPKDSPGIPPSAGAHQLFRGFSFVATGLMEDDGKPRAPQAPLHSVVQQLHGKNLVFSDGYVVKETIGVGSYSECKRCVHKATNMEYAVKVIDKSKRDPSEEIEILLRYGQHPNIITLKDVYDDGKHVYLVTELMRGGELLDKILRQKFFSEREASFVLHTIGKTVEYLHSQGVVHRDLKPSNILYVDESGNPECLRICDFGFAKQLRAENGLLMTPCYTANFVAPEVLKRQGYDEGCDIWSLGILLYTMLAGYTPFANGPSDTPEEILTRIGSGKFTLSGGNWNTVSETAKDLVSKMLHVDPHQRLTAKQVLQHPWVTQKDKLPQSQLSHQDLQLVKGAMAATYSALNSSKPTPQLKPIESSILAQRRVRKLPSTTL

[7] = biological target: T3, Serine/threonine-protein kinase LATS2 (Homo sapiens) (UniProt Q9NRM7); test: Selectivity interaction (KinomeScan (DiscoverX)) EUB0000618a LATS2; settings: at 10 µM
T3 sequence (whole entry): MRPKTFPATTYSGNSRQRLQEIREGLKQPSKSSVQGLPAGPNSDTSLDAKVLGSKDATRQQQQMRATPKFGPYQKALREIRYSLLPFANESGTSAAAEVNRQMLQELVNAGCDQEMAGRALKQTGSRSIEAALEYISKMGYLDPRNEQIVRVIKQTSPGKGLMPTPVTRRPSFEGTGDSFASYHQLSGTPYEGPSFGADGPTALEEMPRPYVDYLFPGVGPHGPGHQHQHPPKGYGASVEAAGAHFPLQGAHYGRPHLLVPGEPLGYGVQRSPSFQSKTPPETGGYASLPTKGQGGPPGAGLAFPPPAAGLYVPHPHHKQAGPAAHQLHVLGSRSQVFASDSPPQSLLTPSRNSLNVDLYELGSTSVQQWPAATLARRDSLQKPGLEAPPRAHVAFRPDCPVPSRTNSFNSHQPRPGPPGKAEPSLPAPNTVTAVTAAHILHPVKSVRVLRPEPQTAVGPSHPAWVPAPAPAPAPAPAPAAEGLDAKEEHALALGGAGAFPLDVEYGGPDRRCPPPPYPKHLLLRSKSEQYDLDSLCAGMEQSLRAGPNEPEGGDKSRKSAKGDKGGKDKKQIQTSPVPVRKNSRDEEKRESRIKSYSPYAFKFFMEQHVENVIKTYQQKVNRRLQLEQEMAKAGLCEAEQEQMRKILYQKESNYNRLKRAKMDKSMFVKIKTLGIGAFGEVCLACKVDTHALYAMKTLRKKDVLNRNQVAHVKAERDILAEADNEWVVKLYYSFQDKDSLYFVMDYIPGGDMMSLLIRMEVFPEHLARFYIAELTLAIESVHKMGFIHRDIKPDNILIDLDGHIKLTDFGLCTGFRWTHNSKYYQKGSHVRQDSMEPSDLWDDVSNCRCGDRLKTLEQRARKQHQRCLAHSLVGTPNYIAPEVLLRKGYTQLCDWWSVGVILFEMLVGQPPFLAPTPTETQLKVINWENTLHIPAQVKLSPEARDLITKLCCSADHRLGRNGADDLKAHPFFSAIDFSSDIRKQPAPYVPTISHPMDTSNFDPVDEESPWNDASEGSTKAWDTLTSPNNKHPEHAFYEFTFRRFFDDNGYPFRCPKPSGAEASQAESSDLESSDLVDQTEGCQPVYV

Sequence of Protein arginine N-methyltransferase 3 (O60678 whole entry): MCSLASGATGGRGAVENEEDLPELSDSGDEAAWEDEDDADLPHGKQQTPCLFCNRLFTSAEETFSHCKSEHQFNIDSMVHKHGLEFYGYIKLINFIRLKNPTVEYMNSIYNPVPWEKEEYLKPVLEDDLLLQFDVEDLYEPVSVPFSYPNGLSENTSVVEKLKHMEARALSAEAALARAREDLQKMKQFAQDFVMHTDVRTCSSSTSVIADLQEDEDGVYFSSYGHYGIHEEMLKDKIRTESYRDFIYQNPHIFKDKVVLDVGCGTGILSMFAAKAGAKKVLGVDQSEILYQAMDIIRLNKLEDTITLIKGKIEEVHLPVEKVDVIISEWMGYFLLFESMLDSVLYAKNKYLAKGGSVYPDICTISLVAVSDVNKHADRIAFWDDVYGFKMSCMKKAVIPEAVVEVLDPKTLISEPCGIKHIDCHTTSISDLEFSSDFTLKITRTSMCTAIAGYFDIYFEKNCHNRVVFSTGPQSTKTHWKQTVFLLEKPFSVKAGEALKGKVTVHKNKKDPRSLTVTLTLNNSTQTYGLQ

COCCN1CCC(c2cc(CN(C)C(=O)c3cccc(Oc4ccccc4)c3)ccn2)CC1
IC50 [1]: > 10 µM

CN(C)CCOc1ccc(-c2nc(-c3ccncc3)c(-c3ccc4c(c3)CC/C4=N\O)[nH]2)cc1
% of control [2]: 100%

O=C(NOC[C@H](O)CO)c1ccc(F)c(F)c1Nc1ccc(I)cc1F
% of control [3]: 85%

Cc1cc([C@@H](C)Nc2ccccc2C(=O)O)c2nc(N3CCOCC3)cc(=O)n2c1 [AZD-6482]
% of control [4]: 100%

Cn1cc(-n2cnc3c(NCc4nc5cc(Cl)c(Cl)cc5[nH]4)nc(N4CCOCC4)nc32)cn1
% of inhibition [5]: -2.22%

CC[C@@H]1[C@H](F)C(=O)N[C@@H]1COc1nccc2cc(C(N)=O)c(OC)cc12 [ZIMLOVISERTIB]
% of inhibition [6]: -38%

O[C@H]1CC[C@H](Nc2ncc3nc(Nc4c(F)cc(F)cc4F)n([C@H]4CCOC4)c3n2)CC1
% of control [7]: 88%

Source: ChEMBL document CHEMBL5465560, “Selectivity Literature for EUbOPEN Chemogenomic Library” (2024)
